According to PubChem BioAssay AID2060896 (Molecular Pharmacology Branch, DTP, NCI, 2025):

System: 941728-121-R-J1-PDC complex spheroid viability
Assay: Anticancer human tumor 941728-121-R-J1-PDC patient-derived lung adenocarcinoma cell line growth inhibition [RAS]
Conditions: for IC50: curve of first compound; for viability, T/C: stronger effect = lower value
Outline: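 Multi-cell-type spheroids: tumor cells plus HUVEC endothelial cells and mesenchymal stem cells. RAS-pathway inhibitors were combined with targeted agents, each dosed in half-log steps down from clinical Cmax, or from 10 microM when Cmax was unknown.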

[1] = second compound 0.00316 µM, first compound 0.0316 µM
[2] = second compound 0.00316 µM, first compound 0.1 µM
[3] = second compound 0.00316 µM, first compound 0.316 µM
[4] = second compound 0.00316 µM, first compound 1 µM
[5] = second compound 0.01 µM, first compound 0.0316 µM
[6] = second compound 0.01 µM, first compound 0.1 µM
[7] = second compound 0.01 µM, first compound 0.316 µM
[8] = second compound 0.01 µM, first compound 1 µM
[9] = second compound 0.0316 µM, first compound 0.0316 µM
[10] = second compound 0.0316 µM, first compound 0.1 µM
[11] = second compound 0.0316 µM, first compound 0.316 µM
[12] = second compound 0.0316 µM, first compound 1 µM
[13] = second compound 0.1 µM, first compound 0.0316 µM
[14] = second compound 0.1 µM, first compound 0.1 µM
[15] = second compound 0.1 µM, first compound 0.316 µM
[16] = second compound 0.1 µM, first compound 1 µM
[17] = second compound 0.316 µM, first compound 0.0316 µM
[18] = second compound 0.316 µM, first compound 0.1 µM
[19] = second compound 0.316 µM, first compound 0.316 µM
[20] = second compound 0.316 µM, first compound 1 µM
[21] = second compound 1 µM, first compound 0.0316 µM
[22] = second compound 1 µM, first compound 0.1 µM
[23] = second compound 1 µM, first compound 0.316 µM
[24] = second compound 1 µM, first compound 1 µM
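Further: spheroids exposed to compounds for 7 days before readout.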
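Wherever viability, T/C is given: 100% = DMSO vehicle control viability.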

`Cc1nc(N2CCC3(CC2)COC(C)C3N)c(CO)nc1Sc1ccnc(N)c1Cl` (centres undefined) + C=CC(=O)N1CCN(c2nc(OCC3CCCN3C)nc3c(F)c(-c4nc(N)cc(C)c4C(F)(F)F)c(Cl)cc23)C(C)C1 gave an IC50 (second compound 0.00316 µM) of under 31.6 nM, an IC50 (second compound 0.01 µM) of under 31.6 nM and an IC50 (second compound 0.0316 µM) of under 31.6 nM. It also gave an IC50 (second compound 0.1 µM) of under 31.6 nM, an IC50 (second compound 0.316 µM) of under 31.6 nM and an IC50 (second compound 1 µM) of under 31.6 nM. The viability, T/C [1] was 19%, the viability, T/C [2] was 17.5% and the viability, T/C [3] was 16.5%. The viability, T/C [4] was 17.4%, the viability, T/C (second compound 0.00316 µM, first compound 3.16 µM) was 16.4% and the viability, T/C (second compound 0.00316 µM, first compound 10 µM) was 17.3%. It also gave a viability, T/C [5] of 17.8%, a viability, T/C [6] of 17.4% and a viability, T/C [7] of 18.4%. The viability, T/C [8] was 20.9%, the viability, T/C (second compound 0.01 µM, first compound 3.16 µM) was 16.2% and the viability, T/C (second compound 0.01 µM, first compound 10 µM) was 16.3%. The viability, T/C [9] was 18.5%, the viability, T/C [10] was 18.3% and the viability, T/C [11] was 13.9%. The viability, T/C [12] was 15.6%, the viability, T/C (second compound 0.0316 µM, first compound 3.16 µM) was 15.9% and the viability, T/C (second compound 0.0316 µM, first compound 10 µM) was 16.9%. It also gave a viability, T/C [13] of 19%, a viability, T/C [14] of 16.7% and a viability, T/C [15] of 15.5%. The viability, T/C [16] was 17.6%, the viability, T/C (second compound 0.1 µM, first compound 3.16 µM) was 17.8% and the viability, T/C (second compound 0.1 µM, first compound 10 µM) was 14.9%. The viability, T/C [17] was 19.3%, the viability, T/C [18] was 28.2% and the viability, T/C [19] was 18.2%. The viability, T/C [20] was 16.4%, the viability, T/C (second compound 0.316 µM, first compound 3.16 µM) was 15.9% and the viability, T/C (second compound 0.316 µM, first compound 10 µM) was 15.9%. For the same compound, the viability, T/C [21] was 20.2%, the viability, T/C [22] was 18.2% and the viability, T/C [23] was 15.9%. It also gave a viability, T/C [24] of 16.1%, a viability, T/C (second compound 1 µM, first compound 3.16 µM) of 19.1% and a viability, T/C (second compound 1 µM, first compound 10 µM) of 18.1%.
`Nc1ccn(C2OC(CO)C(O)C2(F)F)c(=O)n1` (centres undefined) + C=CC(=O)N1CCN(c2nc(OCC3CCCN3C)nc3c(F)c(-c4nc(N)cc(C)c4C(F)(F)F)c(Cl)cc23)C(C)C1 was tested, and the IC50 (second compound 0.00316 µM) was under 3.16 nM, the IC50 (second compound 0.01 µM) was under 3.16 nM and the IC50 (second compound 0.0316 µM) was under 3.16 nM. For the same compound, the IC50 (second compound 0.1 µM) was under 3.16 nM, the IC50 (second compound 0.316 µM) was under 3.16 nM and the IC50 (second compound 1 µM) was under 3.16 nM. The viability, T/C (second compound 0.00316 µM, first compound 0.00316 µM) was 17.8%, the viability, T/C (second compound 0.00316 µM, first compound 0.01 µM) was 14.8% and the viability, T/C [1] was 15.2%. It also gave a viability, T/C [2] of 14%, a viability, T/C [3] of 15.9% and a viability, T/C [4] of 15.6%. For the same compound, the viability, T/C (second compound 0.01 µM, first compound 0.00316 µM) was 17.7%, the viability, T/C (second compound 0.01 µM, first compound 0.01 µM) was 14.7% and the viability, T/C [5] was 16.3%. The viability, T/C [6] was 16.2%, the viability, T/C [7] was 14.5% and the viability, T/C [8] was 13.3%. It also gave a viability, T/C (second compound 0.0316 µM, first compound 0.00316 µM) of 14.9%, a viability, T/C (second compound 0.0316 µM, first compound 0.01 µM) of 15.6% and a viability, T/C [9] of 15.7%. It also gave a viability, T/C [10] of 13.3%, a viability, T/C [11] of 14.9% and a viability, T/C [12] of 15.2%. The viability, T/C (second compound 0.1 µM, first compound 0.00316 µM) was 16.9%, the viability, T/C (second compound 0.1 µM, first compound 0.01 µM) was 13.9% and the viability, T/C [13] was 15.4%. It also gave a viability, T/C [14] of 14.1%, a viability, T/C [15] of 12.1% and a viability, T/C [16] of 12.6%. The viability, T/C (second compound 0.316 µM, first compound 0.00316 µM) was 16.4%, the viability, T/C (second compound 0.316 µM, first compound 0.01 µM) was 16.1% and the viability, T/C [17] was 15.9%. The viability, T/C [18] was 14.3%, the viability, T/C [19] was 15.8% and the viability, T/C [20] was 13.8%. It also gave a viability, T/C (second compound 1 µM, first compound 0.00316 µM) of 18.9%, a viability, T/C (second compound 1 µM, first compound 0.01 µM) of 15.8% and a viability, T/C [21] of 15.8%. For the same compound, the viability, T/C [22] was 16.6%, the viability, T/C [23] was 14% and the viability, T/C [24] was 12.6%.
